Our source for the Ki values is patent publication US7598245B2 (Vertex Pharmaceuticals Incorporated, priority 2003, dated 2009).

Common to all, as to format: biochemical
One assay deals with T1, human Src kinase (Homo sapiens, UniProt P12931).
T1 construct: 25 nM of recombinant human Src kinase
The assay is described as follows: Src inhibition assay B: spectrophotometric (uv-vis) coupled enzyme assay. Particulars: 100 μM ATP. As to the method: The compounds are evaluated as inhibitors of human Src kinase using either a radioactivity-based assay or spectrophotometric assay.
Src Inhibition Assay B: Spectrophotometric Assay
The ADP produced from ATP by the human recombinant Src kinase-catalyzed phosphorylation of poly Glu-Tyr substrate is quantified using a coupled enzyme assay [Fox et al. Protein Sci. 1998, 7, 2249]. In this assay one molecule of NADH is oxidised to NAD for every molecule of ADP produced in the kinase reaction. The disappearance of NADH is conveniently followed at 340 nm.
The following are the final concentrations of the assay components: 0.025 M HEPES (pH 7.6), 10 mM MgCl2, 2 mM DTT, 0.25 mg/ml poly Glu-Tyr, and 25 nM of recombinant human Src kinase. Final concentrations of the components of the coupled enzyme system are 2.5 mM phosphoenolpyruvate, 200 μM NADH, 30 μg/ml pyruvate kinase and 10 μg/ml lactate dehydrogenase.
In a typical assay, all the reaction components with the exception of ATP are pre-mixed and aliquoted into assay plate wells. Inhibitors dissolved in DMSO are added to the wells to give a final DMSO concentration of 2.5%. The assay plate is incubated at 30° C. for 10 min before initiating the reaction with 100 μM ATP. The absorbance change at 340 nm with time, the rate of the reaction, is monitored on a molecular devices plate reader. The data of rate as a function of the inhibitor concentration is fitted to competitive inhibition kinetics model to get the Ki for the compound.

In a further assay the target is T2, PDK-1 (Homo sapiens, UniProt O15530).
T2 sequence (O15530 1-556): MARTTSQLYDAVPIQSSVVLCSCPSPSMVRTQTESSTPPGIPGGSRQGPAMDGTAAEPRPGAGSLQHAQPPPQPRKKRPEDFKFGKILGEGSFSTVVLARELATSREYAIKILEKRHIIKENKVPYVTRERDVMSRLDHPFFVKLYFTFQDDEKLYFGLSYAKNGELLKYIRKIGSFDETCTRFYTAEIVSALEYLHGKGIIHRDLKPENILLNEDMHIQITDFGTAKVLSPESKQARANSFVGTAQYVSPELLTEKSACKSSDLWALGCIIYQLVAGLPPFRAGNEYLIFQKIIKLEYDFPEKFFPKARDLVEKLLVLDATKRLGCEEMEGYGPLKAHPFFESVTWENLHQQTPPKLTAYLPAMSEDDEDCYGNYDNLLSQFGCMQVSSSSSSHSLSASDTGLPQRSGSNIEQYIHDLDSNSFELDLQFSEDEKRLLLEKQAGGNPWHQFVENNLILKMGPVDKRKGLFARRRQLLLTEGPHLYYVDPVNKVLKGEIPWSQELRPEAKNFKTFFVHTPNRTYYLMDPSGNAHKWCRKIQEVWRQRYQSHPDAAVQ
The assay is described as follows: PDK-1 inhibition, radioactive-phosphate incorporation assay. Particulars: 40 μM ATP. As to the method:
Compounds were screened for their ability to inhibit PDK-1 using a radioactive-phosphate incorporation assay (Pitt and Lee, J. Biomol. Screen., (1996) 1, 47). Assays were carried out in a mixture of 100 mM HEPES (pH 7.5), 10 mM MgCl2, 25 mM NaCl, 2 mM DTT. Final substrate concentrations in the assay were 40 μM ATP (Sigma Chemicals) and 65 μM peptide (PDKtide, Upstate, Lake Placid, N.Y.). Assays were carried out at 30° C. and 25 nM PDK-1 in the presence of ˜27.5 nCi/μL of [γ-^32P]ATP (Amersham Pharmacia Biotech, Amersham, UK). An assay stock buffer solution was prepared containing all of the reagents listed above, with the exception of ATP, and the test compound of interest. 15 μl of the stock solution was placed in a 96 well plate followed by addition of 1 μl of 0.5 mM DMSO stock containing the test compound (final compound concentration 25 μM, final DMSO concentration […]). The plate was preincubated for about 10 minutes at 30° C. and the reaction initiated by addition of 4 μl ATP (final concentration 40 μM).
The reaction was stopped after 10 minutes by the addition of 100 μL 100 mM phosphoric acid, 0.01% Tween-20. A phosphocellulose 96 well plate (Millipore, Cat no. MAPHNOB50) was pretreated with 100 μL 100 mM phosphoric acid, 0.01% Tween-20 prior to the addition of the reaction mixture (100 μL). The spots were left to soak for at least 5 minutes, prior to wash steps (4×200 μL 100 mM phosphoric acid, 0.01% Tween-20). After drying, 20 μL Optiphase ‘SuperMix’ liquid scintillation cocktail (Perkin Elmer) was added to the well prior to scintillation counting (1450 Microbeta Liquid Scintillation Counter, Wallac).

The next assay has as its target T3, Aurora-2 (Homo sapiens, UniProt O14965).
T3 construct: addition of 10 μL of Aurora-2 stock solution to give a final concentration of 70 nM
T3 sequence (O14965 1-403): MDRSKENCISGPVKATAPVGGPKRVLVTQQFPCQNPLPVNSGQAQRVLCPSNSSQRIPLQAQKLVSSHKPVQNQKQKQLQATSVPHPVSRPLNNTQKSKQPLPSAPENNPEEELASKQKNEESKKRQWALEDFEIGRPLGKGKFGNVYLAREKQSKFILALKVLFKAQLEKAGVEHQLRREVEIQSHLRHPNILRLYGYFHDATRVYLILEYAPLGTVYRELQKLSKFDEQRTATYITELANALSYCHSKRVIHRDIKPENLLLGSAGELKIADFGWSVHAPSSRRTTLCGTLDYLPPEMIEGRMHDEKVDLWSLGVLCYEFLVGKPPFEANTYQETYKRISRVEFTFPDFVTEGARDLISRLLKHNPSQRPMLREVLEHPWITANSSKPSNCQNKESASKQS
The assay is described as follows: Inhibition of AUR-2, coupled enzyme assay. The protocol: Compounds are screened in the following manner for their ability to inhibit Aurora-2 using a standard coupled enzyme assay (Fox et al (1998) Protein Sci 7, 2249). To an assay stock buffer solution containing 0.1M HEPES 7.5, 10 mM MgCl2, 1 mM DTT, 25 mM NaCl, 2.5 mM phosphoenolpyruvate, […], 30 mg/ml pyruvate kinase, 10 mg/ml lactate dehydrogenase, 40 mM ATP, and 800 μM peptide (LRRASLG, American Peptide, Sunnyvale, Calif.) is added a DMSO solution of a compound of the present invention to a final concentration of 30 μM. The resulting mixture is incubated at 30° C. for 10 min. The reaction was initiated by the addition of 10 μL of Aurora-2 stock solution to give a final concentration of 70 nM in the assay. The rates of reaction are obtained by monitoring absorbance at 340 nm over a 5 minute read time at 30° C. using a BioRad Ultramark plate reader (Hercules, Calif.). The Ki values are determined from the rate data as a function of inhibitor concentration.

In another assay the target is T4, JAK-3 (Homo sapiens, UniProt P52333).
T4 sequence (P52333 1-1124): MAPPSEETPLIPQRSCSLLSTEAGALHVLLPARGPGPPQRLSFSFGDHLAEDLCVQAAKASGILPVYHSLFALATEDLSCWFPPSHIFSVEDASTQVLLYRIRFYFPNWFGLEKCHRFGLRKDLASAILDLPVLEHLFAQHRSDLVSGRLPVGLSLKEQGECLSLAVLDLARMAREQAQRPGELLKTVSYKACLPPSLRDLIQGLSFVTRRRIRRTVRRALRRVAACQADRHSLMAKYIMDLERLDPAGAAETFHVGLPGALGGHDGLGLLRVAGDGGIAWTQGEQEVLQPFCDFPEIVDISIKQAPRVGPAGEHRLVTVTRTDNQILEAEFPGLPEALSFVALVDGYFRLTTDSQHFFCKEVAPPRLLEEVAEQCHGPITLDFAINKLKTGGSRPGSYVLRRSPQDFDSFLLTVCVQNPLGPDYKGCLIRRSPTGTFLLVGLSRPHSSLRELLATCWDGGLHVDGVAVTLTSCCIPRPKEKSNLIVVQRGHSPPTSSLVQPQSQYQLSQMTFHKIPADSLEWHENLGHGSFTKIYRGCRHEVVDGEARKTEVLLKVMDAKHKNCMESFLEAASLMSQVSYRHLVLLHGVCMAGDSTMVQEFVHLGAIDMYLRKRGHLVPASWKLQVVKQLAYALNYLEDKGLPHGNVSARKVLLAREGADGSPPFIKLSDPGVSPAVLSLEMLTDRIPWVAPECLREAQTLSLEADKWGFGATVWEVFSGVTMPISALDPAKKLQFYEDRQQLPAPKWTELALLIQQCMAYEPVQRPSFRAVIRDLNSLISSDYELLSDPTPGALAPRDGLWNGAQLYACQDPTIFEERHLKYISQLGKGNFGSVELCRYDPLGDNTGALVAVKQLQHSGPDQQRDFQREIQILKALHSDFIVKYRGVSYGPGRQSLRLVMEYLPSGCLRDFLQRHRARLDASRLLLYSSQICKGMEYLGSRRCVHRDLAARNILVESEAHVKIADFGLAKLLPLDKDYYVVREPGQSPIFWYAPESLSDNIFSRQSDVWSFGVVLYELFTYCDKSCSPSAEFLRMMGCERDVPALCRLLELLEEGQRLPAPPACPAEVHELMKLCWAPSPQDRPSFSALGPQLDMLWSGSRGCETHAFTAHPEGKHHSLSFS
The assay is described as follows: JAK3 inhibition assay (ELISA, Poly (Glu, Ala, Tyr) coated plates). Particulars: 2 μM ATP. As to the method:
Compound inhibition of JAK was assayed by the method described by G. R. Brown, et al, Bioorg. Med. Chem. Lett. 2000, vol. 10, pp 575-579 in the following manner. Into Maxisorb plates, previously coated at 4° C. with Poly (Glu, Ala, Tyr) 6:3:1 then washed with phosphate buffered saline 0.05% and Tween-(PBST), was added 2 μM ATP, 5 mM MgCl2, and a solution of compound in DMSO. The reaction was started with JAK enzyme and the plates incubated for 60 minutes at 30° C. The plates were then washed with PBST, 100 μL HRP-Conjugated 4G10 antibody was added, and the plate incubated for 90 minutes at 30° C. The plate was again washed with PBST, 100 μL TMB solution is added, and the plates were incubated for another 30 minutes at 30° C. Sulfuric acid (100 μL of 1M) was added to stop the reaction and the plate is read at 450 nm to obtain the optical densities for analysis to determine Ki values.
For orientation: In an ELISA, binding on a coated surface is turned into a signal by an enzyme label.

T1 sequence (P12931 whole entry): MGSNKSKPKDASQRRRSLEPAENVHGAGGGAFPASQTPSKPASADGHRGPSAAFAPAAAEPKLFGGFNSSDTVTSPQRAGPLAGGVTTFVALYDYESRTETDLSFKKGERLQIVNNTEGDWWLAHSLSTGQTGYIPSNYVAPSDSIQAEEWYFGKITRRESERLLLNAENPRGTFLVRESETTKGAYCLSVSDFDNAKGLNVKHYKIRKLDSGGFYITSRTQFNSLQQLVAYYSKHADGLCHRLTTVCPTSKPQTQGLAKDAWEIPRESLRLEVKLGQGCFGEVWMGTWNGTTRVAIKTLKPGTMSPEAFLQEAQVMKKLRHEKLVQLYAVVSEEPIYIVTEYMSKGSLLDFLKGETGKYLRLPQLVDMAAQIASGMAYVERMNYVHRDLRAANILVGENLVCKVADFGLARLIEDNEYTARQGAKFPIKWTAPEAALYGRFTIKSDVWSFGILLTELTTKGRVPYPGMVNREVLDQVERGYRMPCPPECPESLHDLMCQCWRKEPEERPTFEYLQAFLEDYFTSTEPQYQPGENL

Usually Ki stands for a measure of affinity in units of concentration, obtained from inhibition or displacement. Take `c1ccc(Nc2ncn(-c3cc(N[C@H]4CCCNC4)ncn3)n2)cc1` [Compound I-103, [6-(3-Phenylamino-[1,2,4]triazol-1-yl)-pyrimidin-4-yl]-piperidin-3-yl-amine]: the Ki at human Src kinase is less than 500 nM; at PDK-1, less than 1000 nM; at Aurora-2, 100 to 1000 nM.

Consider `NS(=O)(=O)c1ccc(Nc2ncn(-c3ccnc(N[C@H]4CCCNC4)c3)n2)cc1` [Compound I-104, 3-(S)-{4-[3-(4-Sulfamoyl-phenylamino)-[1,2,4]triazol-1-yl]-pyridin-2-ylamino}-piperidine], for which, at PDK-1, the Ki is less than 1000 nM.

For `CCCN(CC1CC1)c1cc(-n2cnc(Nc3ccccc3)n2)ccn1` [Compound I-125, cyclopropylmethyl-[4-(3-phenylamino-[1,2,4]triazol-1-yl)-pyridin-2-yl]-propyl-amine], the Ki on human Src kinase is greater than 1000 nM.

In the case of `CC1CCCCN1c1cc(-n2cnc(Nc3ccccc3)n2)ccn1` (centres unmarked) [Compound I-126, [1-(2-methyl-3,4,5,6-tetrahydro-2H-[1,2′]bipyridinyl-4′-yl)-1H-[1,2,4]triazol-3-yl]-phenyl-amine], on human Src kinase, the Ki was greater than 1000 nM.

With `CN(c1cc(-n2cnc(Nc3ccccc3)n2)ccn1)C1CCCCC1` [Compound I-133], the inhibitory constant (Ki) at human Src kinase and at JAK-3 was greater than 1000 nM in each case.
